Test results published in publication PMC11292196 (Cancer Research, 2024).
Where two headings read alike, the source gives them in different places.

Columns and labels:
HT1197 cells = assay: Cell viability assay; type: cell-based; conditions: read-out: Cisplatin GI50 (d5), 5-day viability assay
HT1376 cells = assay: Cell viability assay; type: cell-based
TCCSUP cells = assay: Cell viability assay; type: cell-based; conditions: read-out: Cisplatin GI50 (d5), 5-day viability assay
T24 cells = assay: Cell viability assay; type: cell-based; conditions: read-out: Cisplatin GI50 (d5), 5-day viability assay
SW1710 cells = assay: Cell viability assay; type: cell-based; conditions: read-out: Cisplatin GI50 (d5), 5-day viability assay
JMSU1 cells = assay: Cell viability assay; type: cell-based; conditions: read-out: Cisplatin GI50 (d5), 5-day viability assay
RT4 cells = assay: Cell viability assay; type: cell-based; conditions: read-out: Cisplatin GI50 (d5), 5-day viability assay
SCaBER cells = assay: Cell viability assay; type: cell-based; conditions: read-out: Cisplatin GI50 (d5), 5-day viability assay
J82 cells = assay: Cell viability assay; type: cell-based; conditions: read-out: Cisplatin GI50 (d5), 5-day viability assay
Cal29 cells = assay: Cell viability assay; type: cell-based; conditions: read-out: Cisplatin GI50 (d5), 5-day viability assay
BFTC905 cells = assay: Cell viability assay; type: cell-based; conditions: read-out: Cisplatin GI50 (d5), 5-day viability assay
UMUC3 cells = assay: Cell viability assay; type: cell-based; conditions: read-out: Cisplatin GI50 (d5), 5-day viability assay
KMBC2 cells = assay: Cell viability assay; type: cell-based; conditions: read-out: Cisplatin GI50 (d5), 5-day viability assay
[1] = tested on: KARPAS-422 xenograft tumors; assay: KARPAS-422 xenograft efficacy study; type: in vivo; conditions: KARPAS-422 mouse xenograft model; 25 mg/kg, PO, QD
[2] = read-out: GI50, long-term cell viability assay, HT1376 cells, day 18

## N.N.[Cl][Pt][Cl] [Cisplatin]
HT1197 cells
  GI50: 3880 nM
HT1376 cells; read-out: Cisplatin GI50 (d5), HT1376, 5-day viability assay
  GI50: 1950 nM
TCCSUP cells
  GI50: 220 nM
T24 cells
  GI50: 810 nM
SW1710 cells
  GI50: 2150 nM
JMSU1 cells
  GI50: 730 nM
RT4 cells
  GI50: 3050 nM
SCaBER cells
  GI50: 1200 nM
J82 cells
  GI50: 450 nM
Cal29 cells
  GI50: 3010 nM
BFTC905 cells
  GI50: 760 nM
UMUC3 cells
  GI50: 350 nM
KMBC2 cells
  GI50: 3640 nM

## Cc1ncccc1-c1cnc(NCc2c(F)ccc3c2CCO3)n2cnnc12 [MAK683]
HT1376 cells; [2]
  GI50: 73 nM

## COc1cc(C)[nH]c(=O)c1CN1CCc2c(Cl)cc([C@H](OC)C3COC3)c(Cl)c2C1=O [PF-06821497]
HT1376 cells; [2]
  GI50: ~5 nM

## CCN(c1cc(-c2ccc(CN3CCOCC3)cc2)cc(C(=O)NCc2c(C)cc(C)[nH]c2=O)c1C)C1CCOCC1 [Tazemetostat]
[1]
  tumor response: modest TGI
